Measurements: ChEMBL document CHEMBL1144238, “Identification and SAR around N-{2-[4-(2,3-dihydro-benzo[1,4]dioxin-2-ylmethyl)-[1,4]diazepan-1-yl]-ethyl}-2-phenoxy-nicotinamide, a selective alpha2C adrenergic receptor antagonist” (Bioorg Med Chem Lett, 2008)
Each block holds one molecule with its values, some of them ahead of it.

Key:
[1] = target: T1, Alpha-2B adrenergic receptor (Homo sapiens, UniProt P18089); assay: Binding affinity at human recombinant adrenergic alpha2B receptor expressed in CHO cells by radioligand binding assay; type: cell-based
T1 sequence (P18089 whole entry): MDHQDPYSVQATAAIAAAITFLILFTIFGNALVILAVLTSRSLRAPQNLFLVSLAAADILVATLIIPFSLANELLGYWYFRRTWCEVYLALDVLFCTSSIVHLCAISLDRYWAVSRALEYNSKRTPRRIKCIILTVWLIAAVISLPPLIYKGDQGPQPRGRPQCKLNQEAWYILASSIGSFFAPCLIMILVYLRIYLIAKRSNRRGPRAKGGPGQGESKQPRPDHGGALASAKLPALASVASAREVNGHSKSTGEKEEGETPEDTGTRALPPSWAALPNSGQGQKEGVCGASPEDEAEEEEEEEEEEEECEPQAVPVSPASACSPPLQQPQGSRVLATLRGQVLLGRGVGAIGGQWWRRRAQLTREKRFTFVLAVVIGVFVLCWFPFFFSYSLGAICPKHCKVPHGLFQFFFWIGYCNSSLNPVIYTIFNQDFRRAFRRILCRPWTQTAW

[2] = target: T2, Alpha-2C adrenergic receptor (Homo sapiens, UniProt P18825); assay: Antagonist activity at human recombinant adrenergic Alpha-2C receptor expressed in CHO cells assessed as inhibition of NE-induced calcium mobilization by FLIPR; type: functional, cell-based
T2 sequence (P18825 whole entry): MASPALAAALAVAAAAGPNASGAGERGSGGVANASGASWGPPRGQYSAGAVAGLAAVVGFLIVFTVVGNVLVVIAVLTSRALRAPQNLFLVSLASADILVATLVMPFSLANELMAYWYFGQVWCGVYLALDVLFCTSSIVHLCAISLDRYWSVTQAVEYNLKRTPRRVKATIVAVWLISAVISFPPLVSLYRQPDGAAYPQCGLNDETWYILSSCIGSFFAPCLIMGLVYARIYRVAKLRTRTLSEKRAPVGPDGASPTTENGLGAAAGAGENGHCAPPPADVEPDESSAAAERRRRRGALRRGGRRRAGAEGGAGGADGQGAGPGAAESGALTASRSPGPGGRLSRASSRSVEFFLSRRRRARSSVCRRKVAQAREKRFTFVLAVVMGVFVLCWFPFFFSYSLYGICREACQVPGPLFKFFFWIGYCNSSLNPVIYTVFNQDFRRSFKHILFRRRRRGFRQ

Homo sapiens [3] = species: Homo sapiens; assay: Selectivity human recombinant adrenergic Alpha-2C receptor over human recombinant adrenergic alpha2B receptor by FLIPR
Homo sapiens [4] = species: Homo sapiens; assay: Selectivity human recombinant adrenergic Alpha-2C receptor over human recombinant adrenergic alpha2A receptor by FLIPR
[5] = target: T2, Alpha-2C adrenergic receptor; assay: Binding affinity at human recombinant adrenergic Alpha-2C receptor expressed in CHO cells by radioligand binding assay; type: cell-based
Homo sapiens [6] = species: Homo sapiens; assay: Selectivity for human recombinant adrenergic Alpha-2C receptor over human recombinant adrenergic alpha2A receptor by radioligand binding assay
[7] = target: T3, Alpha-2A adrenergic receptor (Homo sapiens, UniProt P08913); assay: Binding affinity at human recombinant adrenergic alpha2A receptor expressed in CHO cells by radioligand binding assay; type: cell-based
T3 sequence (P08913 whole entry): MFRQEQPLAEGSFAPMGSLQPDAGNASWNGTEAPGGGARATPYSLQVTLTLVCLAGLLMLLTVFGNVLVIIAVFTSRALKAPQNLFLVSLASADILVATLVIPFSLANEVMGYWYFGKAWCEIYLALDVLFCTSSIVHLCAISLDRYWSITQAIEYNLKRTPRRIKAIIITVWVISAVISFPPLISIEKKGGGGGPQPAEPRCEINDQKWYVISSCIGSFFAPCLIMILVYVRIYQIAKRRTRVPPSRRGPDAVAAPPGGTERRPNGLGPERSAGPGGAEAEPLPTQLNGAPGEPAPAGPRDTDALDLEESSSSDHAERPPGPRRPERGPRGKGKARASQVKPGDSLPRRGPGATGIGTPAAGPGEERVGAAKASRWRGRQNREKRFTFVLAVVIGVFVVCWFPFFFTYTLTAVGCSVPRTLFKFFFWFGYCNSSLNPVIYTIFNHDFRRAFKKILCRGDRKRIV

[8] = target: T1, Alpha-2B adrenergic receptor; assay: Antagonist activity at human recombinant adrenergic alpha2B receptor expressed in CHO cells assessed as inhibition of NE-induced calcium mobilization by FLIPR; type: functional, cell-based
Homo sapiens [9] = species: Homo sapiens; assay: Selectivity for human recombinant adrenergic Alpha-2C receptor over human recombinant adrenergic alpha2B receptor by radioligand binding assay
[10] = target: T3, Alpha-2A adrenergic receptor; assay: Antagonist activity at human recombinant adrenergic alpha2A receptor expressed in CHO cells assessed as inhibition of NE-induced calcium mobilization by FLIPR; type: functional, cell-based
Plasma [11] = assay: Drug level in Wistar Kyoto rat plasma at 30 mg/kg, sc; type: ADME, organism-based; set-up: dose 30 mg/kg, route subcutaneous; settings: in vivo
Cerebrospinal fluid [12] = assay: Drug level in Wistar Kyoto rat cerebro spinal fluid at 10 mg/kg, sc; type: ADME, organism-based; set-up: dose 10 mg/kg, route subcutaneous; settings: in vivo
Brain [13] = assay: Drug level in Wistar Kyoto rat brain at 10 mg/kg, sc; type: ADME, organism-based; set-up: dose 10 mg/kg, route subcutaneous; settings: in vivo
[14] = target: Sodium-dependent dopamine transporter (Homo sapiens) (UniProt Q01959); assay: Binding affinity to human DAT
Plasma [15] = assay: Drug level in Wistar Kyoto rat plasma at 10 mg/kg, sc; type: ADME, organism-based; set-up: dose 10 mg/kg, route subcutaneous; settings: in vivo
[16] = target: 5-hydroxytryptamine receptor 7 (Homo sapiens) (UniProt P34969); assay: Binding affinity to human 5HT7 receptor
Brain [17] = assay: Drug level in Wistar Kyoto rat brain at 3 mg/kg, sc; type: ADME, organism-based; set-up: dose 3 mg/kg, route subcutaneous; settings: in vivo
[18] = target: 5-hydroxytryptamine receptor 2B (Homo sapiens) (UniProt P41595); assay: Binding affinity to human 5HT2B receptor
[19] = target: Alpha-1A adrenergic receptor (Homo sapiens) (UniProt P35348); assay: Binding affinity to human adrenergic alpha1A receptor
[20] = target: Sodium-dependent noradrenaline transporter (Homo sapiens) (UniProt P23975); assay: Binding affinity to human NET
Cerebrospinal fluid [21] = assay: Drug level in Wistar Kyoto rat cerebro spinal fluid at 3 mg/kg, sc; type: ADME, organism-based; set-up: dose 3 mg/kg, route subcutaneous; settings: in vivo
[22] = target: Alpha-2A adrenergic receptor (Rattus norvegicus) (UniProt P22909); assay: Binding affinity to rat adrenergic alpha2A receptor by radioligand binding assay
[23] = target: Muscarinic acetylcholine receptor M2 (Homo sapiens) (UniProt P08172); assay: Binding affinity to human muscarinic M2 receptor
[24] = target: Sodium-dependent serotonin transporter (Homo sapiens) (UniProt P31645); assay: Binding affinity to human SERT
[25] = target: Alpha-2C adrenergic receptor (Rattus norvegicus) (UniProt P22086); assay: Binding affinity to rat adrenergic Alpha-2C receptor by radioligand binding assay
[26] = target: D(2) dopamine receptor (Homo sapiens) (UniProt P14416); assay: Binding affinity to human dopamine D2 receptor
[27] = target: Histamine H1 receptor (Homo sapiens) (UniProt P35367); assay: Binding affinity to human histamine H1 receptor 1 uM
[28] = target: D(3) dopamine receptor (Homo sapiens) (UniProt P35462); assay: Binding affinity to human dopamine D3 receptor
[29] = target: Alpha-2B adrenergic receptor (Rattus norvegicus) (UniProt P19328); assay: Binding affinity to rat adrenergic alpha2B receptor by radioligand binding assay
[30] = target: 5-hydroxytryptamine receptor 1A (Homo sapiens) (UniProt P08908); assay: Binding affinity to human 5HT1A receptor
Cerebrospinal fluid [31] = assay: Drug level in Wistar Kyoto rat cerebro spinal fluid at 30 mg/kg, sc; type: ADME, organism-based; set-up: dose 30 mg/kg, route subcutaneous; settings: in vivo
[32] = target: 5-hydroxytryptamine receptor 2A (Homo sapiens) (UniProt P28223); assay: Binding affinity to human 5HT2A receptor
Plasma [33] = assay: Drug level in Wistar Kyoto rat plasma at 3 mg/kg, sc; type: ADME, organism-based; set-up: dose 3 mg/kg, route subcutaneous; settings: in vivo
[34] = target: D(4) dopamine receptor (Homo sapiens) (UniProt P21917); assay: Binding affinity to human dopamine D4 receptor at 1 uM
Brain [35] = assay: Drug level in Wistar Kyoto rat brain at 30 mg/kg, sc; type: ADME, organism-based; set-up: dose 30 mg/kg, route subcutaneous; settings: in vivo
[36] = target: Histamine H2 receptor (Homo sapiens) (UniProt P25021); assay: Binding affinity to human histamine H2 receptor
[37] = target: 5-hydroxytryptamine receptor 1B (Homo sapiens) (UniProt P28222); assay: Binding affinity to human 5HT1B receptor at 10 uM
[38] = target: Muscarinic acetylcholine receptor M1 (Homo sapiens) (UniProt P11229); assay: Binding affinity to human muscarinic M1 receptor at 10 uM
[39] = target: Muscarinic acetylcholine receptor M3 (Homo sapiens) (UniProt P20309); assay: Binding affinity to human muscarinic M3 receptor at 10 uM

Muscarinic acetylcholine receptor M2 (Homo sapiens), sequence (P08172 whole entry): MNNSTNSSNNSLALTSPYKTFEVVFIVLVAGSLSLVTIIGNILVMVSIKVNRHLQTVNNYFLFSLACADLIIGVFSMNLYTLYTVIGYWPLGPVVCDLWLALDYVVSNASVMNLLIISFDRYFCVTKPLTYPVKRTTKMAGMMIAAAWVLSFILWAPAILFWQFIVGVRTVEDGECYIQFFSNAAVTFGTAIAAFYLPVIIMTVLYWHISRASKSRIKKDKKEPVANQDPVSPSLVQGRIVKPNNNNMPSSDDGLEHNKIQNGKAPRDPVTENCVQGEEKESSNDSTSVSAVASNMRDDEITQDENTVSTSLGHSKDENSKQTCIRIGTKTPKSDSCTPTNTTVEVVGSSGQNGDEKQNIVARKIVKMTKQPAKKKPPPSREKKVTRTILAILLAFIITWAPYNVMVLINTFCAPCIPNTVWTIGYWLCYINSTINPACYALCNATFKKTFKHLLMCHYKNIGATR
Sodium-dependent noradrenaline transporter (Homo sapiens), sequence (P23975 whole entry): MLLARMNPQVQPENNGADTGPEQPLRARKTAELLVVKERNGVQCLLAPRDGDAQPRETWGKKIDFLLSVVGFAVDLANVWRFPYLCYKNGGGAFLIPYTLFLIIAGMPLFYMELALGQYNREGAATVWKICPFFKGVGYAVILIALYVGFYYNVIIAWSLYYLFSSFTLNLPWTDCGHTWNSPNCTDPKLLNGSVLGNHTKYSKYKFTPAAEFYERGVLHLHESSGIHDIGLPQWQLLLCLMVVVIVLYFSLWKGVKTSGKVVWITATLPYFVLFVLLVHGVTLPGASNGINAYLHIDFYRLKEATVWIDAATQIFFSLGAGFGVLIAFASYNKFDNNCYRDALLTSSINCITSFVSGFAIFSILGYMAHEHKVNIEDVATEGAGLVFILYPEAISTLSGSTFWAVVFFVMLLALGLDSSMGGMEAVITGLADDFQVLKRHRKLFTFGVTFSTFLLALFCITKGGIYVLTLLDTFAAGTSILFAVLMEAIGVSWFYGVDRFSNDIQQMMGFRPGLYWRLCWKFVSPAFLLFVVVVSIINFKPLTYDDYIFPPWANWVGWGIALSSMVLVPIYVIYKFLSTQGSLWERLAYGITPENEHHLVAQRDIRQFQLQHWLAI
Alpha-2B adrenergic receptor (Rattus norvegicus), sequence (P19328 whole entry): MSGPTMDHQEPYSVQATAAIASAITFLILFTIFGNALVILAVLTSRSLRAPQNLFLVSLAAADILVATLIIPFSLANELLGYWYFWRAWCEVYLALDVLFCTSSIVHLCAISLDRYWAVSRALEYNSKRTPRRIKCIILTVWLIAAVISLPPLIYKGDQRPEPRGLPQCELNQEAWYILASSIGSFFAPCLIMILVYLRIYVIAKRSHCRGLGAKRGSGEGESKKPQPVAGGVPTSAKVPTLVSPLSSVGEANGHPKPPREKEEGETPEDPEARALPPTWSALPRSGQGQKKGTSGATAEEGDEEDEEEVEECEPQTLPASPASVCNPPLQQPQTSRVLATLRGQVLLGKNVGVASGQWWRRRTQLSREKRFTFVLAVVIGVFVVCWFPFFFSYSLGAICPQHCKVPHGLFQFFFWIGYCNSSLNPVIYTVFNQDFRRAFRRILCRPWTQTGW
5-hydroxytryptamine receptor 1B (Homo sapiens), sequence (P28222 whole entry): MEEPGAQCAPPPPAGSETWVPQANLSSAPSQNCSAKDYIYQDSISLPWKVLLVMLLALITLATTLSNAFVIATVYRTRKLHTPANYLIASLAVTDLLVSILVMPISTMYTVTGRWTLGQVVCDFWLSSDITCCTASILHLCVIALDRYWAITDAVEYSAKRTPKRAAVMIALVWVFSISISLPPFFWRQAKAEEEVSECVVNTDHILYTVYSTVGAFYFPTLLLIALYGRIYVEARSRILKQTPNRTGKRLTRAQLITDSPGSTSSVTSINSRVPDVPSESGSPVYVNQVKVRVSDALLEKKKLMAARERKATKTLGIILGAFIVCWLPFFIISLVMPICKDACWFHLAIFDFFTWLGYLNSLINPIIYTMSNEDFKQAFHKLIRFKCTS
Histamine H1 receptor (Homo sapiens), sequence (P35367 whole entry): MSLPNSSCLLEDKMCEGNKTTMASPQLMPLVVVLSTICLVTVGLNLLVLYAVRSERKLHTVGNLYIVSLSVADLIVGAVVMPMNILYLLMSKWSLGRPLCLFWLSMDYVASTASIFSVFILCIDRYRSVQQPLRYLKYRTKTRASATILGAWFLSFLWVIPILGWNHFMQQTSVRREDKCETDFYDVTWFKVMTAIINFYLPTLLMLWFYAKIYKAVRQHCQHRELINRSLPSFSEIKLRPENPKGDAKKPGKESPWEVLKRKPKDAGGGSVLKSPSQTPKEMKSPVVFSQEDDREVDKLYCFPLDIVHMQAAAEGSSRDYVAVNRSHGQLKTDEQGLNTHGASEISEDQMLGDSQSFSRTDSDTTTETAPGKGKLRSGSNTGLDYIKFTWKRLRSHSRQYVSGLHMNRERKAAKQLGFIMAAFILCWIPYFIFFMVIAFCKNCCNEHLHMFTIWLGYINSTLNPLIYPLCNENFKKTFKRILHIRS
D(4) dopamine receptor (Homo sapiens), sequence (P21917 whole entry): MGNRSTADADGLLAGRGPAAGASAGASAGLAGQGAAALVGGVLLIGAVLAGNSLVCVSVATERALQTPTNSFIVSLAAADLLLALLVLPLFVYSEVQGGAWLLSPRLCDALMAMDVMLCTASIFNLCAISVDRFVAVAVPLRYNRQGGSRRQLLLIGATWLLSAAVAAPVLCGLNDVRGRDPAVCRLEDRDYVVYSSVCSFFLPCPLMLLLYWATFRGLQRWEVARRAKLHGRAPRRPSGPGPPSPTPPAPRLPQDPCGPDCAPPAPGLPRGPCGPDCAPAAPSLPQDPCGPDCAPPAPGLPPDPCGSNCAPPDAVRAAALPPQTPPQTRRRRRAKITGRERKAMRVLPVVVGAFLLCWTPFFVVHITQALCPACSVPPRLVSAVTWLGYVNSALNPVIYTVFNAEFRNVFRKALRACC
Histamine H2 receptor (Homo sapiens), sequence (P25021 whole entry): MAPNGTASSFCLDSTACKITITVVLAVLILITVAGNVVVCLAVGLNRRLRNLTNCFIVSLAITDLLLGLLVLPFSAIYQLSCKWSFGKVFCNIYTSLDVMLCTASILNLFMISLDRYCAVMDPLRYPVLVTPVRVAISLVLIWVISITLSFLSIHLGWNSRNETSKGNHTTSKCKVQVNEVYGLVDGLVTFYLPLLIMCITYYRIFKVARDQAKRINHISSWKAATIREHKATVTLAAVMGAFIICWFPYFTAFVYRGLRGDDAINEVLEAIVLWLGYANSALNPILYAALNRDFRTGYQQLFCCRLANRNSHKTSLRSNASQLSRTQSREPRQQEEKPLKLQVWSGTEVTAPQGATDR
5-hydroxytryptamine receptor 7 (Homo sapiens), sequence (P34969 whole entry): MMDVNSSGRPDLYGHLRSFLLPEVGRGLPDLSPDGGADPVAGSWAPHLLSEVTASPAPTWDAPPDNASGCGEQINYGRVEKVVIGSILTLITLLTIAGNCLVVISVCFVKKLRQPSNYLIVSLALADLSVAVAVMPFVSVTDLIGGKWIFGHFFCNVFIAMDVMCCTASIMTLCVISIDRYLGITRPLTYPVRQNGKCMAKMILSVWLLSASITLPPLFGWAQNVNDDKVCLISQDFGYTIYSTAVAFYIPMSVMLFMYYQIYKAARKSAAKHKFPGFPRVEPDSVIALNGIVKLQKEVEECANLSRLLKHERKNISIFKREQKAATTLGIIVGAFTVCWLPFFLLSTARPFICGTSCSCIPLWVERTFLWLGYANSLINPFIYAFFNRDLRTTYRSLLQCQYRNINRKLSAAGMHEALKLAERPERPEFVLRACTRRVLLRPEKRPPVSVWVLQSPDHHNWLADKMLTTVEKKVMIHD
Muscarinic acetylcholine receptor M1 (Homo sapiens), sequence (P11229 whole entry): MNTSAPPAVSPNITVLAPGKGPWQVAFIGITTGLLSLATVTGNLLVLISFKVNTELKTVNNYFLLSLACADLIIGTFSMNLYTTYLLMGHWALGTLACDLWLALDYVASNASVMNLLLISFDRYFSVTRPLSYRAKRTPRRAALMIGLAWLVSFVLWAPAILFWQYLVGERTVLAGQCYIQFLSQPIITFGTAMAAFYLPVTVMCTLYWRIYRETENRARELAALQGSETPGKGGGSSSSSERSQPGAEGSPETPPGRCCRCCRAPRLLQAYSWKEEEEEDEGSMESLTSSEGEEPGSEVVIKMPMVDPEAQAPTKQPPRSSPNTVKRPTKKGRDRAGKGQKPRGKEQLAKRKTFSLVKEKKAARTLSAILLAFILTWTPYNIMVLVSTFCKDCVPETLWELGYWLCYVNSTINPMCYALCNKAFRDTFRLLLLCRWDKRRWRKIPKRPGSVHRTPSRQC
5-hydroxytryptamine receptor 2B (Homo sapiens), sequence (P41595 whole entry): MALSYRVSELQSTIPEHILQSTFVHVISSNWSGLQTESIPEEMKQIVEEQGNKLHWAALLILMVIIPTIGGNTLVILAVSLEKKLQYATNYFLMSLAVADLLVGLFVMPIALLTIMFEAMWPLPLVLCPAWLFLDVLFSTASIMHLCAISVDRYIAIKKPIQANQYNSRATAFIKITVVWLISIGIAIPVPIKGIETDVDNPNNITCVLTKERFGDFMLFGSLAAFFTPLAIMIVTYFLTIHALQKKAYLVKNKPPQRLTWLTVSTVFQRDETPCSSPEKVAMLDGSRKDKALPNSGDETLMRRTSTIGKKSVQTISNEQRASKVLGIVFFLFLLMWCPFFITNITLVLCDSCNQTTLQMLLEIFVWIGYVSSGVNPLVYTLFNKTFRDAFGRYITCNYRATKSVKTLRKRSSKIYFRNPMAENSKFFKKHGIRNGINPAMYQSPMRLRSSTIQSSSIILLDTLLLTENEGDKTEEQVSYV

Structure (SMILES): N#Cc1cccc(Oc2ncccc2C(=O)NCCN2CCCN(CC3COc4ccccc4O3)CC2)c1 (configuration not stated)
Ki [1]: 36 nM | Ki [2]: 1.9 nM | Ratio Ki (Homo sapiens [3]): 14 | Ratio Ki (Homo sapiens [4]): 262 | Ki [5]: 0.8 nM | Ratio Ki (Homo sapiens [6]): 275 | Ki [7]: 208 nM | Ki [8]: 27.5 nM | Ratio Ki (Homo sapiens [9]): 48 | Ki [10]: 501 nM

Structure (SMILES): c1ccc(Oc2ncccc2COCCN2CCCN(CC3COc4ccccc4O3)CC2)cc1 (configuration not stated)
Ki [1]: 69.5 nM | Ki [2]: 6.8 nM | Ratio Ki (Homo sapiens [3]): 19 | Ratio Ki (Homo sapiens [4]): 41 | Ki [5]: 2.5 nM | Ratio Ki (Homo sapiens [6]): 26 | Ki [7]: 66.1 nM | Ki [8]: 132 nM | Ratio Ki (Homo sapiens [9]): 28 | Ki [10]: 275 nM

Structure (SMILES): O=C(NCCN1CCCN(C[C@@H]2COc3ccccc3O2)CC1)c1cccnc1Oc1ccccc1
Ki [5]: 9.2 nM | Ratio Ki (Homo sapiens [6]): 53 | Ratio Ki (Homo sapiens [9]): 12

Structure (SMILES): CCCCOc1ncccc1C(=O)NCCN1CCCN(CC2COc3ccccc3O2)CC1 (configuration not stated)
Ki [1]: 10.5 nM | Ki [2]: 4.8 nM | Ratio Ki (Homo sapiens [3]): 3 | Ratio Ki (Homo sapiens [4]): 15 | Ki [5]: 0.8 nM | Ratio Ki (Homo sapiens [6]): 103 | Ki [7]: 81 nM | Ki [8]: 13.3 nM | Ratio Ki (Homo sapiens [9]): 13 | Ki [10]: 73.6 nM

Further molecules by falling Ki [5], results first:

Ki [1]: 194 nM | Ki [2]: 23 nM | Ratio Ki (Homo sapiens [3]): 1 | Ratio Ki (Homo sapiens [4]): 7 | Ki [5]: 33 nM | Ratio Ki (Homo sapiens [6]): 15 | Ki [7]: 506 nM | Ki [8]: 17 nM | Ratio Ki (Homo sapiens [9]): 6 | Ki [10]: 167 nM
Structure (SMILES): COc1ccccc1N1CCN(CC2COc3ccccc3O2)CC1 (configuration not stated)

Ki [1]: 17.9 nM | Ki [5]: 15.7 nM | Ratio Ki (Homo sapiens [6]): 28 | Ki [7]: 443 nM | Ratio Ki (Homo sapiens [9]): 1
Structure (SMILES): O=C(NCCN1CCCN(CC2COc3ccccc3O2)CC1)c1cccnc1 (configuration not stated)

Cp (Plasma [11]): 6190 ng/mL | Ki [1]: 14.3 nM | Ki [2]: 1.9 nM | Drug uptake (Cerebrospinal fluid [12]): 26.9 ng/mL | Drug uptake (Brain [13]): 630 ngequiv/g | Ratio Ki (Homo sapiens [3]): 16 | Activity [14]: 3.48 µM | Ratio Ki (Homo sapiens [4]): > 232 | Ki [5]: 0.9 nM | Ratio Ki (Homo sapiens [6]): 106 | Cp (Plasma [15]): 2100 ng/mL | Activity [16]: 530 nM | Drug uptake (Brain [17]): 173 ngequiv/g | Activity [18]: 690 nM | Ki [7]: 94.4 nM | Activity [19]: 59 nM | Activity [20]: 1790 nM | Drug uptake (Cerebrospinal fluid [21]): 7.39 ng/mL | Activity [22]: 177 nM | Activity [23]: 1600 nM | Activity [24]: 1480 nM | Ki [8]: 31.3 nM | Activity [25]: 1.7 nM | Activity [26]: 820 nM | Activity [27]: 33% | Activity [28]: 75 nM | Activity [29]: 7.6 nM | Activity [30]: 141 nM | Drug uptake (Cerebrospinal fluid [31]): 113 ng/mL | Activity [32]: 2400 nM | Cp (Plasma [33]): 744 ng/mL | Ratio Ki (Homo sapiens [9]): 16 | Activity [34]: 10% | Drug uptake (Brain [35]): 2230 ngequiv/g | Activity [36]: 1900 nM | Activity [37]: 44% | Activity [38]: 4% | Activity [39]: 27% | Ki [10]: > 442 nM
Structure (SMILES): O=C(NCCN1CCCN(C[C@H]2COc3ccccc3O2)CC1)c1cccnc1Oc1ccccc1
